Experimental data from patent publication EP4803080A1, “METHOD FOR TREATING LEUKEMIA” (Shenzhen TargetRx Co., Ltd., priority 2023, dated 2025).

System: CML-CP with T315I mutation
Assay: Phase I dose escalation and dose expansion clinical trial: efficacy in CML-CP subjects with T315I mutation
Type: in vivo, humans
Text: This study is a single-arm, open-label, dose-escalation and dose-expansion Phase I clinical trial.
The dose-escalation phase of this trial consists of about 8 dose groups, with oral administration under fasting conditions. Subjects in all dose groups will receive a single dose on Day 1 (D1), followed by pharmacokinetic (PK) and tolerability observations. […] After entering the multiple-dose period, subjects in the first dose group will initially receive twice-daily (BID) dosing (if PK data from the single-dose period are available, the dosing frequency during the multiple-dose period may be adjusted based on the PK data). The dosing frequency for subjects in subsequent dose groups after entering the multiple-dose period will be determined based on available PK and tolerability data. Throughout the trial, dosing frequency for all subjects may be adjusted based on continuously updated safety and PK data.
A continuous reassessment method (CRM) based on the principle of the escalation with overdose control (EWOC) design will be used to recommend the next specific dose for each dose escalation, thereby completing dose escalation and determining the maximum tolerated dose (MTD). If both the investigator and sponsor believe that higher dose groups may offer better efficacy and manageable safety, the EWOC-based CRM method may be used to explore higher doses. All enrolled subjects will receive long-term treatment with the test drug and undergo evaluations for safety, tolerability, and preliminary efficacy.
After obtaining certain research data from the dose-escalation phase, the investigator may comprehensively consider safety, efficacy, and other information to decide whether to enroll additional subjects at the MTD and/or lower dose levels to determine the recommended Phase II dose (RP2D). Two to four suitable dosing regimens will be selected for expansion in the target population (including subjects enrolled at the target dose levels during the escalation phase).
A total of 8 dose groups were established: 10 mg bid, 20 mg bid, 40 mg bid, 80 mg bid, 40 mg qd, 80 mg qd, 160 mg qd, and 240 mg qd.
The dose expansion phase was conducted in the following 3 cohorts: • Cohort 1: Subjects with chronic phase (CP) chronic myeloid leukemia (CML) who had previously received at least ≥2 different TKIs and were T315I-negative. A total of 3 dose groups were established: 40 mg qd, 80 mg qd, and 240 mg qd; • Cohort 2: Subjects with chronic phase (CP) chronic myeloid leukemia (CML) who have previously received ≥1 TKI and were T315I-positive. A total of 2 dose groups were established: 40 mg qd and 240 mg qd; • Cohort 3: Subjects with accelerated phase (AP) chronic myeloid leukemia (CML) who have previously received ≥1 TKI, regardless of T315I positivity. A total of 1 dose group was established: 240 mg qd.

[1] = CML-CP subjects with T315I mutation, all doses, 16 evaluable, as of August 24, 2023
[2] = CML-CP subjects with T315I mutation, as of August 24, 2023
[3] = CML-CP subjects with T315I mutation, as of June 2, 2024
[4] = CML-CP with T315I mutation, 10 mg BID, 0 evaluable subjects, as of August 24, 2023
[5] = CML-CP with T315I mutation, 20 mg BID, 1 evaluable subject, as of August 24, 2023
[6] = CML-CP with T315I mutation, 40 mg BID, 1 evaluable subject, as of August 24, 2023
[7] = CML-CP with T315I mutation, 40 mg QD, 2 evaluable subjects, as of August 24, 2023
[8] = CML-CP with T315I mutation, 40 mg/day Total, 3 evaluable subjects, as of August 24, 2023
[9] = CML-CP with T315I mutation, 80 mg BID, 1 evaluable subject, as of August 24, 2023
[10] = CML-CP with T315I mutation, 80 mg QD, 0 evaluable subjects, as of August 24, 2023
[11] = CML-CP with T315I mutation, 80 mg/day Total, 1 evaluable subject, as of August 24, 2023
[12] = CML-CP with T315I mutation, 160 mg QD, 1 evaluable subject, as of August 24, 2023
[13] = CML-CP with T315I mutation, 160 mg/day Total, 2 evaluable subjects, as of August 24, 2023
[14] = CML-CP with T315I mutation, 240 mg QD, 10 evaluable subjects, as of August 24, 2023
[15] = CML-CP with T315I mutation, Total, all dose groups, 16 evaluable subjects, as of August 24, 2023

With `O=C(Nc1ccc(OC(F)(F)Cl)cc1)c1cnc(N2CC[C@@H](F)C2)c(-c2cnccn2)c1` [Compound A, (R)-N-(4-(chlorodifluoromethoxy)phenyl)-6-(3-fluoropyrrolidin-1-yl)-5-(pyrazin-2-yl)nicotinamide] the CHR (CML-CP subjects with T315I mutation, all doses, 13 evaluable, as of August 24, 2023) was 92.3%, the CCyR [1] was 56.3% and the MCyR [1] was 62.5%. The MMR (CML-CP subjects with T315I mutation, all doses, 17 evaluable, as of August 24, 2023) was 35.3%, the “CHR within 3 treatment cycles” value (CML-CP subjects with T315I mutation, 20 evaluable, as of June 2, 2024) was 80% and the “median time to CCyR” value [2] was 2.83 (2.76, 2.92) months. For the same compound, the “median time to MCyR” value [2] was 2.81 (2.76, 2.83) months, the “median time to MMR” value [2] was 2.81 (2.76, 3.68) months and the “18-month cumulative incidence of CCyR” value [3] was 69%. The “18-month cumulative incidence of MCyR” value [3] was 76%, the “18-month cumulative incidence of MMR” value [3] was 50% and the CCyR [4] was 0 n (%). For the same compound, the CHR [4] was 0 n (%), the MCyR [4] was 0 n (%) and the MMR [4] was 0 n (%). For the same compound, the CCyR [5] was 1 (100) n (%), the CHR [5] was 1 (100) n (%) and the MCyR [5] was 1 (100) n (%). For the same compound, the MMR [5] was 0 n (%), the CCyR [6] was 0 n (%) and the CHR [6] was 1 (100) n (%). The MCyR [6] was 0 n (%), the MMR [6] was 0 n (%) and the CHR (CML-CP with T315I mutation, 40 mg QD, 0 evaluable subjects, as of August 24, 2023) was 0 n (%). For the same compound, the CCyR [7] was 2 (100) n (%), the MCyR [7] was 2 (100) n (%) and the MMR (CML-CP with T315I mutation, 40 mg QD, 3 evaluable subjects, as of August 24, 2023) was 2 (66.7) n (%). For the same compound, the CHR (CML-CP with T315I mutation, 40 mg/day Total, 1 evaluable subject, as of August 24, 2023) was 1 (100) n (%), the CCyR [8] was 3 (100) n (%) and the MCyR [8] was 3 (100) n (%). The MMR (CML-CP with T315I mutation, 40 mg/day Total, 4 evaluable subjects, as of August 24, 2023) was 2 (50.0) n (%), the CHR (CML-CP with T315I mutation, 80 mg BID, 0 evaluable subjects, as of August 24, 2023) was 0 n (%) and the CCyR [9] was 1 (100) n (%). For the same compound, the MCyR [9] was 1 (100) n (%), the MMR [9] was 1 (100) n (%) and the CCyR [10] was 0 n (%). For the same compound, the CHR [10] was 0 n (%), the MCyR [10] was 0 n (%) and the MMR [10] was 0 n (%). For the same compound, the CCyR [11] was 0 n (%), the CHR [11] was 1 (100) n (%) and the MCyR [11] was 0 n (%). The MMR [11] was 0 n (%), the CCyR [12] was 1 (100) n (%) and the CHR [12] was 1 (100) n (%). The MCyR [12] was 1 (100) n (%), the MMR [12] was 1 (100) n (%) and the CHR (CML-CP with T315I mutation, 160 mg/day Total, 1 evaluable subject, as of August 24, 2023) was 1 (100) n (%). For the same compound, the CCyR [13] was 2 (100) n (%), the MCyR [13] was 2 (100) n (%) and the MMR [13] was 2 (100) n (%). For the same compound, the CCyR [14] was 4 (40.0) n (%), the CHR [14] was 9 (90.0) n (%) and the MCyR [14] was 5 (50.0) n (%). The MMR [14] was 2 (20.0) n (%), the CHR (CML-CP with T315I mutation, Total, all dose groups, 13 evaluable subjects, as of August 24, 2023) was 12 (92.3) n (%) and the CCyR [15] was 9 (56.3) n (%). The MCyR [15] was 10 (62.5) n (%) and the MMR (CML-CP with T315I mutation, Total, all dose groups, 17 evaluable subjects, as of August 24, 2023) was 6 (35.3) n (%).
